Laboratory results from US12465591B2, “Use of carbamate compound for preventing, alleviating or treating diabetic peripheral neuropathy or chemotherapy-induced peripheral neuropathy” (SK BIOPHARMACEUTICALS CO., LTD., priority 2018, dated 2025).

Assays:
[1] = tested on: taxol-induced peripheral neuropathy model (mechanical allodynia); experiment: von Frey test of mechanical allodynia in taxol-induced peripheral neuropathy rat model; type: in vivo, rat (Sprague-Dawley)
Method: (§1) Male rats (Sprague-Dawley, 160 to 180 g, Harlan Laboratories, Israel) were purchased and subjected to acclimatization for more than 1 week at an animal laboratory. The experimental animals were maintained at a light-and-darkness cycle of 12 hours, a temperature of 20 to 24° C., a relative humidity of 40 to 60%, and free access to water and food.
(§2) The degree of pain was assessed by withdrawal (avoidance response) using von Frey filaments. Mechanical stimuli were applied to the right hind paw by the use of an up-down method, and the lowest bending force showing avoidance response was defined as the paw withdrawal threshold (J Neurosci Methods, 1994; 53 (1): 55-63). First, the rats were placed in an acrylic box (13×25×13 cm^3) located on a wire mesh installed at a height of about 35 cm from the floor and stabilized for more than 20 minutes. Among von Frey filaments with various bending forces (0.008, 0.02, 0.04, 0.07, 0.16, 0.4, 0.6, 1.0, 1.4, 2.0, 4.0, 6.0, 8.0, 10.0, 15.0, 26.0, 60.0, 100, 180 and 300 g), the stimulus was started with 2.0 g of filament. The stimulus was applied to the extent of slightly bending in the direction perpendicular to the plantar surface, and the rats were stimulated with a filament with lower or higher bending force, depending on with and without reaction.
To induce peripheral neuropathy, 2 mg/kg of taxol—which is an anticancer agent commonly used for the treatment of solid cancers—was intraperitoneally (IP) administered at a dose of 0.5 ml/kg on days 1, 3, 5, 7 and 9. To confirm the induction of allodynia, von Frey test was used, and in the study only animals having […] or less of average pain threshold of hind paws were included.
On day 13 of the experiment, only animals—in which allodynia was verified by von Frey test—were selected as experimental groups, Test Compounds (10 mg/kg and 30 mg/kg) and vehicle as the negative control were orally administered 2 hours before the pain test on day 13 and day 14. Morphine (5 mg/kg) as the positive control was administered 30 minutes prior to the pain test by intraperitoneal administration on day 13 and day 14 of the experiment. After the experiment, all animals were euthanized with CO2.
(§3) Each experimental group was compared with the negative control group by using one-way ANOVA and Tukey […] post-test (Prism® GraphPad).

[2] = tested on: streptozotocin (STZ)-induced diabetic peripheral neuropathic pain rat model (mechanical allodynia); experiment: von Frey test of mechanical allodynia in streptozotocin (STZ)-induced diabetic peripheral neuropathic pain rat model; type: in vivo, rat (Sprague-Dawley); details: for bending force before administration: day 24, immediately before that day's dose
Method: as §1
as §2, with “reaction,” for “reaction.”
This experiment was conducted to investigate the analgesic effects of compound treatment at two different doses (10 mg/kg and 30 mg/kg) in a diabetic peripheral neuropathic pain model of rats induced by streptozotocin (STZ).
Diabetes was induced by 0.5 ml injection of streptozotocin (60 mg/kg) dissolved in citrate buffer (pH=6) into the tail vein of the rat. Animals were placed under a red lamp before injection and locked in a restraint device for administration.
In a streptozotocin (STZ)-induced diabetic peripheral neuropathic pain rat model, diabetic peripheral neuropathy was induced between 14 and 24 days after injection of STZ through the tail blood vessel of the rat. Blood glucose levels (BGL) of all animals on day 3 of the test were used to determine whether diabetes was induced, and on day 14, animals showing signs of mechanical allodynia by von Frey test were tested for BGL on day 14 and 23 of the experiment (FIG. 1).
After the experiment, all animals were euthanized with CO2.
as §3

Q: NC(=O)O[C@@H](Cn1ncnn1)c1ccccc1Cl [Test Compound] was tested. Which “inhibitory effect on the induction of allodynia compared to the vehicle-administration group” value ([1]; day 13, 10 mg/kg orally, 2 hours before the pain test) did it give?
A: The value was “a tendency to inhibit the induction of allodynia”.

Q: And the “inhibitory effect on the induction of allodynia compared to the vehicle-administration group” value ([1]; day 13, 30 mg/kg orally, 2 hours before the pain test)?
A: Its value is “a significant inhibitory effect on the induction of allodynia”.

Q: What about the “inhibitory effect on the induction of allodynia compared to the vehicle-administration group” value ([1]; day 14, 10 mg/kg orally, 2 hours before the pain test) of the same compound?
A: The value was “a tendency to inhibit the induction of allodynia”.

Q: What about the “inhibitory effect on the induction of allodynia compared to the vehicle-administration group” value ([1]; day 14, 30 mg/kg orally, 2 hours before the pain test) of the same compound?
A: Its value is “a significant inhibitory effect on the induction of allodynia”.

Q: What about the “pain reduction compared to the negative control” value ([2]; 10 mg/kg, efficacy similar to 150 mg/kg of gabapentin) of the same compound?
A: Its value is roughly 75%.

Q: And the “allodynia suppressive effect compared to vehicle” value ([2]; day 14, 10 mg/kg PO)?
A: Its value is “a tendency of allodynia suppressive effect”.

Q: And the “inhibition of allodynia, pre-treatment vs. post-treatment” value ([2]; day 14, 10 mg/kg PO)?
A: Its value is “the induction of allodynia was significantly inhibited”.

Q: And the “allodynia suppressive effect compared to vehicle” value ([2]; day 14, 30 mg/kg PO)?
A: The value was “a tendency of allodynia suppressive effect”.

Q: And the “inhibition of allodynia, pre-treatment vs. post-treatment” value ([2]; day 14, 30 mg/kg PO)?
A: Its value is “the induction of allodynia was significantly inhibited”.

Q: What about the “mean bending force (paw withdrawal threshold, von Frey)” value (“mean bending force” for short) ([2]; day 14, 2 hours after administration, 10 mg/kg PO, vehicle 34.50±6.61 g) of the same compound?
A: Its value is 46.09 ± 4.48 g.

Q: What about the “allodynia suppressive effect compared to vehicle” value ([2]; day 24, 10 mg/kg PO) of the same compound?
A: The value was “significant allodynia suppressive effect”.

Q: What about the “inhibition of allodynia, pre-treatment vs. post-treatment” value ([2]; day 24, 10 mg/kg PO) of the same compound?
A: Its value is “the induction of allodynia was significantly inhibited”.

Q: What about the “allodynia suppressive effect compared to vehicle” value ([2]; day 24, 30 mg/kg PO) of the same compound?
A: The value was “significant allodynia suppressive effect”.

Q: And the “inhibition of allodynia, pre-treatment vs. post-treatment” value ([2]; day 24, 30 mg/kg PO)?
A: Its value is “the induction of allodynia was significantly inhibited”.

Q: What about the “mean bending force” value ([2]; day 24, after administration, daily dosing from day 14, 10 mg/kg PO, vehicle 22.85±3.86 g) of the same compound?
A: The value was 44.36 ± 3.63 g.

Q: And the “bending force before administration” value ([2]; after daily dosing from day 14, 10 mg/kg PO)?
A: Its value is 25.18 ± 2.96 g.

Q: What about the “bending force before administration” value ([2]; after daily dosing from day 14, 30 mg/kg PO) of the same compound?
A: Its value is 23.55 ± 2.52 g.

Q: For NCC1(CC(=O)O)CCCCC1 [gabapentin, reference compound], which “allodynia suppressive effect compared to vehicle” value ([2]; day 14, 150 mg/kg IP) is on record?
A: Its value is “no significant allodynia suppressive effect”.

Q: And the “inhibition of allodynia, pre-treatment vs. post-treatment” value ([2]; day 14, 150 mg/kg IP)?
A: Its value is “the induction of allodynia was significantly inhibited”.

Q: What about the “mean bending force” value ([2]; day 14, 2 hours after administration, 150 mg/kg IP, vehicle 34.50±6.61 g) of the same compound?
A: The value was 51.85 ± 4.91 g.

Q: And the “allodynia suppressive effect compared to vehicle” value ([2]; day 24, 150 mg/kg IP)?
A: The value was “significant allodynia suppressive effect”.

Q: What about the “inhibition of allodynia, pre-treatment vs. post-treatment” value ([2]; day 24, 150 mg/kg IP) of the same compound?
A: Its value is “the induction of allodynia was significantly inhibited”.

Q: What about the “mean bending force” value ([2]; day 24, after administration, daily dosing from day 14, 150 mg/kg IP, vehicle 22.85±3.86 g) of the same compound?
A: Its value is 45.30 ± 4.63 g.

Q: And the “bending force before administration” value ([2]; after daily dosing from day 14, 150 mg/kg IP)?
A: The value was 25.50 ± 3.95 g.

Q: For CN1CC[C@]23c4c5ccc(O)c4O[C@H]2[C@@H](O)C=C[C@H]3[C@H]1C5 [morphine, Morphine, reference compound], which “inhibitory effect on the induction of allodynia compared to the vehicle-administration group” value ([1]; day 13, 5 mg/kg IP, 30 minutes prior to the pain test) is on record?
A: The value was “a significant inhibitory effect on the induction of allodynia”.

Q: And the “inhibitory effect on the induction of allodynia compared to the vehicle-administration group” value ([1]; day 14, 5 mg/kg IP, 30 minutes prior to the pain test)?
A: Its value is “a significant inhibitory effect on the induction of allodynia”.
